{"source": "PubChem BioAssay AID1259411", "about": "(Chemical Carcinogenesis Research Information System (CCRIS), 2018)", "system": "rodent carcinogenicity bioassays, tumor incidence", "test": "CCRIS carcinogenicity studies", "how_it_was_run": "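Archive of carcinogenicity, mutagenicity, tumor promotion and tumor inhibition results drawn from journals, NCI reports and other sources, expert-reviewed; covers 1985-2011 and is no longer updated.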", "note": "The source made the active and inactive calls. No rule for the calls is given here."}
{"smiles": "ClCCCl", "values": [{"measurement": "carcinogen call", "setting": "Species: MOUSE, Strain/Sex: B6C3F1/FEMALE, Route: GAVAGE, Dose: 0, 149, 299 MG/KG TWA,5 D/WK FOR 78 WK (STUDY DURATION: 91 WK), Dose: 0, 149, 299 MG/KG TWA,5 D/WK FOR 78 WK (STUDY DURATION: 91 WK), Tumor Site: Type of Lesion: LUNG: ALVEOLAR/BRONCHIOLAR ADENOMA, UTERUS (ENDOMETRIUM): STROMAL POLYP, STROMAL SARCOMA, MAMMARY GLAND: ADENOCARCINOMA, Tumor Site: Type of Lesion: LUNG: ALVEOLAR/BRONCHIOLAR ADENOMA, UTERUS (ENDOMETRIUM): STROMAL POLYP, STROMAL SARCOMA, MAMMARY GLAND: ADENOCARCINOMA", "result": "active; positive"}, {"measurement": "carcinogen call", "setting": "Species: MOUSE, Strain/Sex: B6C3F1/MALE, Route: GAVAGE, Dose: 0, 97, 195 MG/KG TWA, 5 D/WK FOR 78 WK (STUDY DURATION: 90-91 WK), Dose: 0, 97, 195 MG/KG TWA, 5 D/WK FOR 78 WK (STUDY DURATION: 90-91 WK), Tumor Site: Type of Lesion: LUNG: ALVEOLAR/BRONCHIOLAR ADENOMA", "result": "active; positive"}, {"measurement": "carcinogen call", "setting": "Species: MOUSE, Strain/Sex: EU-PIM-1/FEMALE, Route: GAVAGE, Dose: 0, 100, 300 MG/KG 1/D FOR 40 WK (STUDY DURATION: 40 WK), Dose: 0, 100, 300 MG/KG 1/D FOR 40 WK (STUDY DURATION: 40 WK), Tumor Site: Type of Lesion: LYMPHATIC SYSTEM: LYMPHOMA", "result": "active; positive"}, {"measurement": "carcinogen call", "setting": "Species: MOUSE, Strain/Sex: EU-PIM-1/MALE, Route: GAVAGE, Dose: 0, 100, 300 MG/KG 1/D FOR 40 WK (STUDY DURATION: 40 WK), Dose: 0, 100, 300 MG/KG 1/D FOR 40 WK (STUDY DURATION: 40 WK)", "result": "inactive; negative"}, {"measurement": "carcinogen call", "setting": "Species: MOUSE, Strain/Sex: ICR/FEMALE, Route: DERMAL, Dose: 42, 126 MG/APPL/MOUSE IN 0.2 ML ACETONE 3/WK, Tumor Site: Type of Lesion: LUNG: BENIGN PAPILLOMA", "result": "active; positive"}, {"measurement": "carcinogen call", "setting": "Species: RAT, Strain/Sex: OSBORNE-MENDEL/FEMALE, Route: GAVAGE, Dose: 0, 47, 95 MG/KG TWA, 5 D/WK FOR 69 WK (STUDY DURATION: 93-110 WK), Dose: 0, 47, 95 MG/KG TWA, 5 D/WK FOR 69 WK (STUDY DURATION: 93-110 WK), Tumor Site: Type of Lesion: MAMMARY GLAND: ADENOCARCINOMA OR FIBROADENOMA", "result": "active; positive"}, {"measurement": "carcinogen call", "setting": "Species: RAT, Strain/Sex: OSBORNE-MENDEL/MALE, Route: GAVAGE, Dose: 0, 47, 95 MG/KG TWA, 5 D/WK FOR 69 WK (STUDY DURATION: 101-110 WK), Dose: 0, 47, 95 MG/KG TWA, 5 D/WK FOR 69 WK (STUDY DURATION: 101-110 WK), Tumor Site: Type of Lesion: INTEGUMENTARY SYSTEM (SUBCUTANEOUS TISSUE): FIBROMA, FORESTOMACH: SQUAMOUS CELL CARCINOMA, BLOOD VESSELS: HEMANGIOSARCOM, Tumor Site: Type of Lesion: INTEGUMENTARY SYSTEM (SUBCUTANEOUS TISSUE): FIBROMA, FORESTOMACH: SQUAMOUS CELL CARCINOMA, BLOOD VESSELS: HEMANGIOSARCOM", "result": "active; positive"}, {"measurement": "carcinogen call", "setting": "Species: RAT, Strain/Sex: SPRAGUE-DAWLEY/FEMALE, Route: INHALATION, Dose: 0, 5, 10, 50, 150, 250 PPM IN AIR 7 HR/D 5 D/WK FOR 78 WK (STUDY DURATION: LIFETIME), Dose: 0, 5, 10, 50, 150, 250 PPM IN AIR 7 HR/D 5 D/WK FOR 78 WK (STUDY DURATION: LIFETIME), Tumor Site: Type of Lesion: [BRAIN WAS ONLY SITE EVALUATED]", "result": "inactive; negative"}, {"measurement": "carcinogen call", "setting": "Species: RAT, Strain/Sex: SPRAGUE-DAWLEY/FEMALE, Route: INHALATION, Dose: 0, 50 PPM 7 HR/D 5 D/WK FOR 2 YR (STUDY DURATION: 2 YR)", "result": "inactive; negative"}, {"measurement": "carcinogen call", "setting": "Species: RAT, Strain/Sex: SPRAGUE-DAWLEY/MALE, Route: INHALATION, Dose: 0, 5, 10, 50, 150, 250 PPM IN AIR 7 HR/D 5 D/WK FOR 78 WK (STUDY DURATION: LIFETIME), Dose: 0, 5, 10, 50, 150, 250 PPM IN AIR 7 HR/D 5 D/WK FOR 78 WK (STUDY DURATION: LIFETIME), Tumor Site: Type of Lesion: [BRAIN WAS ONLY SITE EVALUATED]", "result": "inactive; negative"}, {"measurement": "carcinogen call", "setting": "Species: RAT, Strain/Sex: SPRAGUE-DAWLEY/MALE, Route: INHALATION, Dose: 0, 50 PPM 7 HR/D 5 D/WK FOR 2 YR (STUDY DURATION: 2 YR)", "result": "inactive; negative"}]}
{"smiles": "Clc1ccc(-c2ccc(Cl)c(Cl)c2Cl)c(Cl)c1Cl", "values": [{"measurement": "carcinogen call", "setting": "Species: RAT, Strain/Sex: SHERMAN/FEMALE, Route: ORAL, Dose: 100 MG/KG IN DIET, Tumor Site: Type of Lesion: LIVER: NEOPLASTIC NODULE, HEPATOCELLULAR CARCINOMA", "result": "active; positive"}, {"measurement": "carcinogen call", "setting": "Species: RAT, Strain/Sex: SPRAGUE-DAWLEY/FEMALE, Route: ORAL, Dose: 0, 25, 50, 100 PPM IN DIET FOR THE DURATION OF STUDY (STUDY DURATION: 24 MO), Dose: 0, 25, 50, 100 PPM IN DIET FOR THE DURATION OF STUDY (STUDY DURATION: 24 MO), Tumor Site: Type of Lesion: LIVER: TUMOR", "result": "active; positive"}, {"measurement": "carcinogen call", "setting": "Species: RAT, Strain/Sex: SPRAGUE-DAWLEY/FEMALE, Route: ORAL, Dose: 0, 100 PPM IN DIET FOR 16 MO AND 50 PPM FOR AN ADDITIONAL 8 MO FOLLOWED BY CONTROL DIET FOR 5 MO (STUDY DURATION: 29 MO), Tumor Site: Type of Lesion: LIVER: TRABECULAR CARCINOMA, ADENOCARCINOMA", "result": "active; positive"}, {"measurement": "carcinogen call", "setting": "Species: RAT, Strain/Sex: SPRAGUE-DAWLEY/MALE, Route: ORAL, Dose: 0, 25, 50, 100 PPM IN DIET FOR THE DURATION OF STUDY (STUDY DURATION: 24 MO), Dose: 0, 25, 50, 100 PPM IN DIET FOR THE DURATION OF STUDY (STUDY DURATION: 24 MO), Tumor Site: Type of Lesion: THYROID GLAND: ADENOMA OR CARCINOMA, LIVER: TUMOR", "result": "active; positive"}, {"measurement": "carcinogen call", "setting": "Species: RAT, Strain/Sex: SPRAGUE-DAWLEY/MALE, Route: ORAL, Dose: 0, 100 PPM IN DIET FOR 16 MO AND 50 PPM FOR AN ADDITIONAL 8 MO FOLLOWED BY CONTROL DIET FOR 5 MO (STUDY DURATION: 29 MO)", "result": "inactive; negative"}, {"measurement": "carcinogen call", "setting": "Species: RAT, Strain/Sex: WISTAR/MALE, Route: ORAL, Dose: 0, 50, 100 PPM IN A 10% PROTEIN DIET FOR 4 MO (STUDY DURATION: 4 MO), Dose: 0, 50, 100 PPM IN A 10% PROTEIN DIET FOR 4 MO (STUDY DURATION: 4 MO), Tumor Site: Type of Lesion: THYMUS: NEOPLASM, SPLEEN: NEOPLASM", "result": "active; positive"}]}
{"smiles": "C/C=C/C=O", "values": [{"measurement": "carcinogen call", "setting": "Species: MOUSE, Strain/Sex: B6C3F1/FEMALE, Route: INTRAPERITONEAL, Dose: 0, 1500 NMOL TOTAL DOSE, 1/3 AND 2/3 OF THE TOTAL DOSE ADMINISTERED AT 8 AND 15 DAYS OF AGE RESPECTIVELY, ANIMALS TERMIN", "result": "inactive; negative"}, {"measurement": "carcinogen call", "setting": "Species: MOUSE, Strain/Sex: B6C3F1/FEMALE, Route: INTRAPERITONEAL, Dose: 0, 3000 NMOL TOTAL DOSE, 1/3 AND 2/3 OF THE TOTAL DOSE ADMINISTERED AT 8 AND 15 DAYS OF AGE RESPECTIVELY, ANIMALS TERMIN", "result": "inactive; negative"}, {"measurement": "carcinogen call", "setting": "Species: MOUSE, Strain/Sex: B6C3F1/MALE, Route: INTRAPERITONEAL, Dose: 0, 1500 NMOL TOTAL DOSE, 1/3 AND 2/3 OF THE TOTAL DOSE ADMINISTERED AT 8 AND 15 DAYS OF AGE RESPECTIVELY, ANIMALS TERMIN", "result": "inactive; negative"}, {"measurement": "carcinogen call", "setting": "Species: MOUSE, Strain/Sex: B6C3F1/MALE, Route: INTRAPERITONEAL, Dose: 0, 3000 NMOL TOTAL DOSE, 1/3 AND 2/3 OF THE TOTAL DOSE ADMINISTERED AT 8 AND 15 DAYS OF AGE RESPECTIVELY, ANIMALS TERMIN", "result": "inactive; negative"}]}
{"smiles": "CCNNCC", "values": [{"measurement": "carcinogen call", "setting": "Species: RAT, Route: PRE-NATAL EXP, Tumor Site: Type of Lesion: BRAIN, NERVOUS SYSTEM", "result": "active; positive"}]}
{"smiles": "O=[N+]([O-])O", "values": [{"measurement": "carcinogen call", "setting": "Species: RAT, Strain/Sex: F344/MALE,FEMALE, Route: ORAL, Dose: 2.5, 5% IN DRINKING WATER FOR 2 YR", "result": "inactive; negative"}]}
{"smiles": "OCc1ccn2c1[C@H](O)CC2", "values": [{"measurement": "carcinogen call", "setting": "Species: MOUSE, Strain/Sex: SWISS/FEMALE, Route: DERMAL/SUBCUTANEOUS, Dose: 0, 20 MG/KG IN 0.2 ML ACETONE TO SHAVED MID-BACK REGION AND 0, 20 MG/KG IN 0.1 ML PHOSPHATE BUFFER TO INTERSCAPULAR REGI, Dose: 0, 20 MG/KG IN 0.2 ML ACETONE TO SHAVED MID-BACK REGION AND 0, 20 MG/KG IN 0.1 ML PHOSPHATE BUFFER TO INTERSCAPULAR REGI, Tumor Site: Type of Lesion: SKIN: BASAL CELL CARCINOMA", "result": "active; positive"}, {"measurement": "carcinogen call", "setting": "Species: MOUSE, Strain/Sex: SWISS/FEMALE, Route: DERMAL, Dose: 0, 20 MG/KG IN 0.2 ML ACETONE 1/WK FOR 4 WK AFTER 6 MO ANIMALS WITHOUT TUMORS TREATED AGAIN 1/WK FOR 2 WK (STUDY DURATIO, Tumor Site: Type of Lesion: SKIN: BASAL CELL CARCINOMA", "result": "active; positive"}, {"measurement": "carcinogen call", "setting": "Species: MOUSE, Strain/Sex: SWISS/FEMALE, Route: SUBCUTANEOUS, Dose: 0, 20 MG/KG IN 0.1 ML PHOSPHATE BUFFER 1/WK FOR 4 WK AFTER 6 MO ANIMALS WITHOUT TUMORS TREATED AGAIN 1/WK FOR 2 WK (STUD, Tumor Site: Type of Lesion: SKIN: BASAL CELL CARCINOMA", "result": "active; positive"}]}
{"smiles": "C1CN1c1nc(N2CC2)nc(N2CC2)n1", "values": [{"measurement": "carcinogen call", "setting": "Species: MOUSE, Route: INTRAPERITONEAL, Tumor Site: Type of Lesion: OVARIES, LUNG, THYMUS GLAND, Tumor Site: Type of Lesion: OVARIES, LUNG, THYMUS GLAND", "result": "active; positive"}]}
